Test results reported in PubChem BioAssay AID2060491 (Molecular Pharmacology Branch, DTP, NCI, 2025).
pIC50: −log10 of the molar value.

Test system: 857933-349-R-J2-PDC complex spheroids, viability
Experiment: Anticancer human tumor 857933-349-R-J2-PDC patient-derived colon adenocarcinoma cell line growth inhibition [GQUAD]
Settings: for pIC50: curve of first compound; for viability, T/C: stronger effect = lower value; active = viability on the fitted dose curve at most 10% of control; inactive = the rest
How it was run: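 Multi-cell-type spheroids of tumor cells with HUVEC and mesenchymal stem cells, treated with drug combinations. Concentrations descend in half-log steps from near clinical Cmax, or from 10 microM where Cmax is unknown; viability read-out.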

[1] = second compound 0.0316 µM, first compound 0.0316 µM
[2] = second compound 0.0316 µM, first compound 0.1 µM
[3] = second compound 0.0316 µM, first compound 0.316 µM
[4] = second compound 0.0316 µM, first compound 1 µM
[5] = second compound 0.0316 µM, first compound 3.16 µM
[6] = second compound 0.0316 µM, first compound 10 µM
[7] = second compound 0.1 µM, first compound 0.0316 µM
[8] = second compound 0.1 µM, first compound 0.1 µM
[9] = second compound 0.1 µM, first compound 0.316 µM
[10] = second compound 0.1 µM, first compound 1 µM
[11] = second compound 0.1 µM, first compound 3.16 µM
[12] = second compound 0.1 µM, first compound 10 µM
[13] = second compound 0.316 µM, first compound 0.0316 µM
[14] = second compound 0.316 µM, first compound 0.1 µM
[15] = second compound 0.316 µM, first compound 0.316 µM
[16] = second compound 0.316 µM, first compound 1 µM
[17] = second compound 0.316 µM, first compound 3.16 µM
[18] = second compound 0.316 µM, first compound 10 µM
[19] = second compound 1 µM, first compound 0.0316 µM
[20] = second compound 1 µM, first compound 0.1 µM
[21] = second compound 1 µM, first compound 0.316 µM
[22] = second compound 1 µM, first compound 1 µM
[23] = second compound 1 µM, first compound 3.16 µM
[24] = second compound 1 µM, first compound 10 µM
[25] = second compound 3.16 µM, first compound 0.0316 µM
[26] = second compound 3.16 µM, first compound 0.1 µM
[27] = second compound 3.16 µM, first compound 0.316 µM
[28] = second compound 3.16 µM, first compound 1 µM
[29] = second compound 3.16 µM, first compound 3.16 µM
[30] = second compound 3.16 µM, first compound 10 µM
[31] = second compound 10 µM, first compound 0.0316 µM
[32] = second compound 10 µM, first compound 0.1 µM
[33] = second compound 10 µM, first compound 0.316 µM
[34] = second compound 10 µM, first compound 1 µM
[35] = second compound 10 µM, first compound 3.16 µM
[36] = second compound 10 µM, first compound 10 µM
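Also: spheroids exposed to compounds for one week before readout.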
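For viability, T/C in this document: percent viability relative to vehicle DMSO wells taken as 100%.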

C=CC(=O)N1CCN(c2nc(=O)n(-c3c(C)ccnc3C(C)C)c3nc(-c4c(O)cccc4F)c(F)cc23)C(C)C1 (stereo unspecified) + Cc1cnc(CNC(=O)c2c(=O)c3ccc(N4CCCN(C)CC4)nc3n3c2sc2ccccc23)cn1
< 5.00: pIC50 (second compound 0.0316 µM) | pIC50 (second compound 0.1 µM)
active: viability, T/C [19] 4.37% | viability, T/C [20] 5.36% | viability, T/C [21] 4.38% | viability, T/C [22] 4.4% | viability, T/C [23] 4.7% | viability, T/C [24] 5.94% | viability, T/C [25] 2.59% | viability, T/C [26] 2.48% | viability, T/C [27] 2.57% | viability, T/C [28] 3.03% | viability, T/C [29] 3.31% | viability, T/C [30] 2.69% | viability, T/C [31] 1.16% | viability, T/C [32] 1.17% | viability, T/C [33] 1.22% | viability, T/C [34] 1.56% | viability, T/C [35] 1.95% | viability, T/C [36] 1.37%
> 7.50: pIC50 (second compound 0.316 µM) | pIC50 (second compound 1 µM) | pIC50 (second compound 3.16 µM) | pIC50 (second compound 10 µM)
inactive: viability, T/C [1] 106% | viability, T/C [2] 85.1% | viability, T/C [3] 91.4% | viability, T/C [4] 88.1% | viability, T/C [5] 111% | viability, T/C [6] 79.3% | viability, T/C [7] 59.7% | viability, T/C [8] 69.3% | viability, T/C [9] 64.4% | viability, T/C [10] 73% | viability, T/C [11] 78.2% | viability, T/C [12] 67% | viability, T/C [13] 19.7% | viability, T/C [14] 25.7% | viability, T/C [15] 26.4% | viability, T/C [16] 22.1% | viability, T/C [17] 34.4% | viability, T/C [18] 30.8%

CC(C)n1c(=O)n(C)c2cnc3cc(F)c(-c4ccc(OCCCN5CCCCC5)nc4)cc3c21 + Cc1cnc(CNC(=O)c2c(=O)c3ccc(N4CCCN(C)CC4)nc3n3c2sc2ccccc23)cn1
> 7.50: pIC50 (second compound 0.316 µM) | pIC50 (second compound 1 µM) | pIC50 (second compound 3.16 µM) | pIC50 (second compound 10 µM)
5.49: pIC50 (second compound 0.1 µM)
active: viability, T/C [19] 9.65% | viability, T/C [20] 10.9% | viability, T/C [21] 8.38% | viability, T/C [22] 8.38% | viability, T/C [23] 11% | viability, T/C [24] 6.11% | viability, T/C [25] 3.19% | viability, T/C [26] 3.85% | viability, T/C [27] 4.08% | viability, T/C [28] 3.05% | viability, T/C [29] 4.81% | viability, T/C [30] 1.31% | viability, T/C [31] 3.24% | viability, T/C [32] 2.19% | viability, T/C [33] 2.95% | viability, T/C [34] 1.88% | viability, T/C [35] 2.22% | viability, T/C [36] 0.46%
< 5.00: pIC50 (second compound 0.0316 µM)
inactive: viability, T/C [1] 76.9% | viability, T/C [2] 60.9% | viability, T/C [3] 73.1% | viability, T/C [4] 69.2% | viability, T/C [5] 73.3% | viability, T/C [6] 54.3% | viability, T/C [7] 43.9% | viability, T/C [8] 45.5% | viability, T/C [9] 52.8% | viability, T/C [10] 52% | viability, T/C [11] 57.7% | viability, T/C [12] 31.4% | viability, T/C [13] 32.7% | viability, T/C [14] 39.1% | viability, T/C [15] 33% | viability, T/C [16] 35.2% | viability, T/C [17] 39.1% | viability, T/C [18] 17.5%

CC1COCCN1c1cc(-c2ccnn2C)c2ccnc(-c3ccn[nH]3)c2n1 (stereo unspecified) + Cc1cnc(CNC(=O)c2c(=O)c3ccc(N4CCCN(C)CC4)nc3n3c2sc2ccccc23)cn1
> 7.50: pIC50 (second compound 0.0316 µM) | pIC50 (second compound 0.1 µM) | pIC50 (second compound 0.316 µM) | pIC50 (second compound 1 µM) | pIC50 (second compound 3.16 µM) | pIC50 (second compound 10 µM)
active: viability, T/C [14] 6.9% | viability, T/C [15] 5.16% | viability, T/C [16] 5.25% | viability, T/C [17] 9.22% | viability, T/C [18] 16% | viability, T/C [19] 2.71% | viability, T/C [20] 2.88% | viability, T/C [21] 2.86% | viability, T/C [22] 2.6% | viability, T/C [23] 4.59% | viability, T/C [24] 8.81% | viability, T/C [25] 2.08% | viability, T/C [26] 3.98% | viability, T/C [27] 2.01% | viability, T/C [28] 1.59% | viability, T/C [29] 2.42% | viability, T/C [30] 5% | viability, T/C [31] 1.03% | viability, T/C [32] 0.7% | viability, T/C [33] 0.73% | viability, T/C [34] 0.54% | viability, T/C [35] 1.7% | viability, T/C [36] 2.18%
inactive: viability, T/C [1] 49.6% | viability, T/C [2] 33.7% | viability, T/C [3] 33.5% | viability, T/C [4] 31.8% | viability, T/C [5] 38.3% | viability, T/C [6] 41.4% | viability, T/C [7] 30.5% | viability, T/C [8] 25.8% | viability, T/C [9] 18.4% | viability, T/C [10] 23.6% | viability, T/C [11] 31% | viability, T/C [12] 32.4% | viability, T/C [13] 12.3%
